# Literature values in patent publication US20230286919A1, “ISOQUINOLINE DERIVATIVES FOR USE IN THERAPY” (Vestlandets Innovasjonsselskap AS, priority 2020, published 2023).
# Test system: STAT1 and STAT5
# Details: cited from earlier work
smiles,measurement,value
Cc1ccc(S(=O)(=O)OCC(=O)Nc2ccc(C(=O)O)c(O)c2)cc1 [S3I-201],Activity towards STAT1 and STAT5,low activity
